Data as given in PubChem BioAssay (NCI).
Values joined by “and” are separate entries in the source; they are usually repeats but may differ in a detail not shown here. Equal entries are not always repeated.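 These data come from cells grown in 96-well plates and exposed to compound for 48 hours at five concentrations. Abbreviation: GI50, concentration required for 50% inhibition of growth. The concentration for full growth arrest is given as TGI.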

Key:
Experiment in all cases: growth of human tumour cells (NCI), 48 h
NCI-H522 lung = test system: NCI-H522 lung
KM12 colon = test system: KM12 colon
OVCAR-4 ovarian = test system: OVCAR-4 ovarian
ACHN renal = test system: ACHN renal
SNB-75 CNS = test system: SNB-75 CNS
M14 melanoma = test system: M14 melanoma
MCF7 breast = test system: MCF7 breast
SF-539 CNS = test system: SF-539 CNS
CCRF-CEM leukemia = test system: CCRF-CEM leukemia
SNB-19 CNS = test system: SNB-19 CNS

SMILES | GI50 (NCI-H522 lung) [µM] | TGI (NCI-H522 lung) | GI50 (KM12 colon) [µM] | TGI (KM12 colon) | GI50 (OVCAR-4 ovarian) [µM] | TGI (OVCAR-4 ovarian) | GI50 (ACHN renal) [µM] | TGI (ACHN renal) | GI50 (SNB-75 CNS) [µM] | TGI (SNB-75 CNS) | GI50 (M14 melanoma) [µM] | TGI (M14 melanoma) | GI50 (MCF7 breast) [µM] | TGI (MCF7 breast) | GI50 (SF-539 CNS) [µM] | TGI (SF-539 CNS) | GI50 (CCRF-CEM leukemia) [µM] | TGI (CCRF-CEM leukemia) | TGI (SNB-19 CNS) | GI50 (SNB-19 CNS) [µM]
Cc1nc2c(N3CCCC3)nc(N3CCNCC3)nc2nc1NCc1ccccc1 | 0.869 | 4.56 µM and 4.21 µM | 6.53 | 26.6 µM and 13.3 µM | 5.57 | 11.7 µM and 21.7 µM | 2.69 | 7.54 µM and 16.5 µM | 1.85 | 4.11 µM and 4.69 µM | 2.64 | 9.12 µM and 3.53 µM | 5.99 | 13.3 µM and 5.92 µM | 6.21 | 13.4 µM and 7 µM | 4.65 | 11 µM and 6.27 µM | 10.6 µM and 16.3 µM | –
CC1(C)CC([P+](c2ccccc2)(c2ccccc2)c2ccccc2)=NN1 | 2.52 | > 100 µM | 1.89 | 45.9 µM | 3.07 | > 100 µM | 60.2 | > 100 µM | 5.3 | > 100 µM | 11.4 | > 100 µM | 2.46 | > 100 µM | 6.13 | 97.3 µM | 8.36 | > 100 µM | > 100 µM | 5.03
NC(=O)c1ccccc1NC(=O)c1ccccc1Cl | > 100 | > 100 µM | > 100 | > 100 µM | > 100 | > 100 µM | > 100 | > 100 µM | > 100 | > 100 µM | > 100 | > 100 µM | > 100 | > 100 µM | > 100 | > 100 µM | > 100 | > 100 µM | > 100 µM | > 100
Cc1ncc(C(=O)Nc2ccc(CN3CCN(C)CC3)c(C(F)(F)F)c2)cc1C#Cc1c(N)ncc2ccccc12 | 0.46 | 0.992 µM | 0.00444 | 0.479 µM | 0.515 | 2.08 µM | 0.336 | 0.732 µM | 0.458 | 0.975 µM | 0.0923 | 0.476 µM | 0.378 | 0.913 µM | 0.47 | 0.914 µM | 0.494 | 1.35 µM | 1.06 µM | 0.591
COC(=O)[C@]12CC[C@@H](C)[C@H](C)[C@@H]1C1=CC[C@@H]3[C@@]4(C)C(C=O)=C[C@@](C)(COS(C)(=O)=O)C4[C@H](O)C[C@@]3(C)[C@]1(C)CC2 (some centres undefined) | 1.21 | 2.91 µM | 1.83 | 3.96 µM | 1.84 | 6.06 µM | 1.18 | 2.56 µM | 1.51 | 8.86 µM | 1.68 | 4.5 µM | 1.19 | 3.63 µM | 1.83 | 3.71 µM | 0.782 | 3.22 µM | 8.44 µM | 2.47
COc1ccc(-c2cc(-c3cccc(NS(C)(=O)=O)c3)nc(N)c2C#N)cc1 | 0.0164 | 1.25 µM | 0.118 | 9.12 µM | 1.24 | 99.6 µM | 0.0789 | 43.9 µM | 0.0316 | 0.769 µM | 0.0808 | 10.7 µM | 0.348 | 25.3 µM | 0.0478 | 0.491 µM | 0.0875 | > 100 µM | > 84 µM | 0.158
OCC(CCc1c[nH]c2ccccc12)c1c[nH]c2ccccc12 (centres undefined) | – | 29.4 µM | – | 32.5 µM | – | 42.9 µM | – | 45.1 µM | – | 45.7 µM | – | 28.6 µM | – | 35 µM | – | 33.6 µM | – | – | 30.5 µM | –
CC(C)C[C@H](NC(=O)CCn1ccc2ncccc2c1=O)B(O)O | 4.26 | 25 µM | 14.6 | 37.7 µM | 24.9 | > 100 µM | 9.45 | > 100 µM | 14.5 | 47.5 µM | 5.45 | > 47.3 µM | 3.88 | > 100 µM | 2.96 | 9.03 µM | 0.308 | > 26.5 µM | > 100 µM | 32.6
O=C1c2ccccc2-c2c1c1ccc([N+](=O)[O-])cc1c(=O)n2CCCNCCO | 0.154 | 1.91 µM | 0.297 | 1.76 µM | 0.492 | 2.77 µM | 0.0496 | 0.48 µM | 0.372 | 1.34 µM | 0.0904 | 1.4 µM | – | 1.31 µM | – | – | 0.023 | 1.09 µM | 1.82 µM | 0.107
O=C(CCSc1ccnc2c(C(F)(F)F)cccc12)N/N=C/c1cc(Cl)c(Cl)cc1Cl | 31.6 | > 100 µM | 29.7 | 77.9 µM | 25.4 | 64.2 µM | 19.7 | 35.5 µM | 20 | 46.1 µM | – | – | 22.9 | 44 µM | 18 | 35.4 µM | 25.4 | 62.1 µM | 48.5 µM | 21.9
CN(C)CCSCCO | – | > 100 µM | – | > 100 µM | – | > 100 µM | – | > 100 µM | – | > 100 µM | – | > 100 µM | – | > 100 µM | – | > 100 µM | – | – | > 100 µM | –
CN(C)CCCCn1ccc2c1C(=O)c1c(c(O)c3ccccc3c1O)C2=O | 33.8 | > 100 µM | 10.4 | 24.4 µM | 19.6 | 43.1 µM | 14.8 | 27.9 µM | 15.8 | 35.8 µM | 2.78 | 8.7 µM | 11.3 | 28.4 µM | – | – | 1.32 | 4.54 µM | 30.5 µM | 14.6
COc1c(Cl)ccc2c(-c3nc4cc(Cl)c(F)cc4s3)cc(=O)oc12 | 1.6 | 3.38 µM | 4.06 | 22.1 µM | 12.9 | 70.6 µM | 4 | 17.2 µM | 1.56 | 3.28 µM | 26.7 | > 100 µM | 9.13 | > 79 µM | 1.77 | 3.36 µM | – | – | > 72.3 µM | > 43.4
C=C(CNC(=O)c1ccccc1)c1ccc(C(=O)Nc2ccccc2N)cc1 | 2.6 | 10.1 µM | 5.11 | > 100 µM | 11.6 | > 100 µM | 3.86 | > 100 µM | – | – | – | – | 3.2 | > 100 µM | 1.38 | > 100 µM | 0.493 | 8.38 µM | > 100 µM | 80.2
